Laboratory results taken from patent publication US7030143B2, “Heterocyclic compounds” (Nippon Shinyaku Co., Ltd., priority 2000, dated 2006).
Blank lines part the entries; values can stand above or below the compound they belong to.

Columns and labels:
[1] = test system: KK-A^y mice; assay: Effects on carbohydrate and lipid metabolism in KK-A^y mouse; assay type: in vivo; conditions: oral, 4 days; for Percent change of each parameter compared to control group (%): AI: Atherogenic Index = (TC − HDL-C)/HDL-C; for Percent change of each parameter compared to control group (%): BG: plasma glucose level; for Percent change of each parameter compared to control group (%): Ins: plasma insulin level; for Percent change of each parameter compared to control group (%): TG: plasma triglyceride level; for Percent change of each parameter compared to control group (%): HDL-C: serum HDL-C level; for Percent change of each parameter compared to control group (%): (V)LDL-C: sum of VLDL-C and LDL-C level in serum
Experimental: The experiment was conducted using the compounds described in the Examples as test compounds and Troglitazone (5-[4-(6-hydroxy-2,5,7,8-tetramethylchroman-2-ylmethoxy)benzyl]-2,4-thiazolidinedione) as a control compound.
Each test compound was orally administered to KK-A^y mice (10 week old, male), NIDDM model animal, for 4 days at a given dosage. On the next day of the last administration, blood was collected from tail end blood vessels under non-fasting conditions to prepare heparinized plasma. Thereafter, blood was collected from an abdominal large vein under pentobarbital anesthesia to prepare serum. The glucose level (BG), triglyceride level (TG) and insulin level (Ins) in plasma were measured using a glucose CII-test Wako (Wako Pure Chemical Industries, Ltd), CLINTECH TG-S (IATORON LABORATORIES, INC.) or triglyceride E-test WAKO (Wako Pure Chemical Industries, Ltd), and a rat insulin measurement kit (Morinaga Biochemistry Research Institute) or REBIS-insulin-mouse-T (Mouse Insulin ELISA (TMB) KIT, Shibayagi Co., Ltd), respectively. Also, the sum of VLDL-C level and LDL-C level in serum (hereinafter, referred to as “(V)LDL-C”), total cholesterol level (TC) and HDL-C level were measured using a high performance liquid chromatography system for the measurement of lipoprotein cholesterol (TOSOH CORPORATION). (V)LDL-C level was measured because VLDL-C and LDL-C cannot be measured separately. Atherogenic Index (AI) was calculated according to the following formula: AI=[(TC level)−(HDL-C level)]/(HDL-C level).

- melting point: 88.5 to 89 °C
Structure (SMILES): CCc1oc(-c2ccccc2)nc1CCCCCCOC(C)(C)C(=O)O [Example 42, 2-[6-(5-Ethyl-2-phenyloxazol-4-yl)hexyloxy]-2-methylpropionic acid]

- melting point: 75 to 77 °C
Structure (SMILES): CC(C)(OCCCCCCc1coc(-c2ccccc2)n1)C(=O)O [Example 43, 2-Methyl-2-[6-(2-phenyloxazol-4-yl)hexyloxy]propionic acid]

- melting point: 91 to 93 °C
Structure (SMILES): CC(C)(OCCCCCCCc1coc(-c2ccc(Cl)cc2)n1)C(=O)O [Example 46, 2-{7-[2-(4-Chlorophenyl)oxazol-4-yl]heptyloxy}-2-methylpropionic acid]

- melting point: 80 to 83 °C
Structure (SMILES): CC(C)(OCCCCCCc1coc(-c2ccc(F)cc2)n1)C(=O)O [Example 48, 2-{6-[2-(4-Fluorophenyl)oxazol-4-yl]hexyloxy}-2-methylpropionic acid]

- melting point: 71 to 72 °C
Structure (SMILES): CC(C)(OCCCCCCCc1csc(-c2ccccc2)n1)C(=O)O [Example 49, 2-Methyl-2-[7-(2-phenylthiazol-4-yl)heptyloxy]propionic acid]

- melting point: 91 to 93 °C
Structure (SMILES): Cc1oc(-c2ccncc2)nc1CCCCCCOC(C)(C)C(=O)O [Example 51, 2-Methyl-2-{6-[5-methyl-2-(4-pyridyl)oxazol-4-yl]hexyloxy}propionic acid]

- melting point: 36 °C
Structure (SMILES): Cc1ccc(-c2nc(CCCCCCOC(C)(C)C#N)c(C)o2)cc1 [Example 85, 2-Methyl-2-{6-[5-methyl-2-(p-tolyl)oxazol-4-yl]-hexyloxy}propiononitrile]

- melting point: 87 °C
Structure (SMILES): Cc1ccc(-c2nc(CCCCCCOC(C)(C)c3nnn[nH]3)c(C)o2)cc1 [Example 86, 5-[1-Methyl-1-{6-[5-methyl-2-(p-tolyl)oxazol-4-yl]hexyloxy}ethyl]tetrazole]

The next lines start with the compound.

Structure (SMILES): Cc1oc(-c2ccccc2)nc1CCCCCOC(C)(C)C(=O)O (hydrate or solvate) [Example 34, 2-Methyl-2-[5-(5-methyl-2-phenyloxazol-4-yl)pentyloxy]propionic acid]
- melting point: 66 to 68 °C

Structure (SMILES): Cc1oc(-c2ccccc2)nc1CCCCCCCOC(C)(C)C(=O)O [Example 36, 2-Methyl-2-[7-(5-methyl-2-phenyloxazol-4-yl)heptyloxy]propionic acid]
- melting point: 70 to 71 °C

Structure (SMILES): Cc1oc(-c2ccc(F)cc2)nc1CCCCCCOC(C)(C)C(=O)O [Example 40, 2-{6-[2-(4-Fluorophenyl)-5-methyloxazol-4-yl]hexyloxy}-2-methylpropionic acid]
- melting point: 64 to 67 °C

Structure (SMILES): Cc1oc(-c2ccc(C(C)(C)C)cc2)nc1CCCCCCOC(C)(C)C(=O)O [Example 41, 2-{6-[2-(4-tert-Butylphenyl)-5-methyloxazol-4-yl]hexyloxy}-2-methylpropionic acid]
- melting point: 89 to 91 °C

Structure (SMILES): CC(C)(OCCCCCCCc1coc(-c2ccccc2)n1)C(=O)O [Example 44, 2-Methyl-2-[7-(2-phenyloxazol-4-yl)heptyloxy]propionic acid]
- melting point: 72 to 75 °C

Structure (SMILES): CC(C)(OCCCCCCCCc1coc(-c2ccccc2)n1)C(=O)O [Example 45, 2-Methyl-2-[8-(2-phenyloxazol-4-yl)octyloxy]propionic acid]
- melting point: 59 to 61 °C

Structure (SMILES): CC(C)(OCCCCCCCc1coc(-c2ccc(F)cc2)n1)C(=O)O [Example 47, 2-{7-[2-(4-Fluorophenyl)oxazol-4-yl]heptyloxy}-2-methylpropionic acid]
- melting point: 67 to 74 °C

Structure (SMILES): CC(C)(OCCCCCCCCc1csc(-c2ccccc2)n1)C(=O)O [Example 50, 2-Methyl-2-[8-(2-phenylthiazol-4-yl)octyloxy]propionic acid]
- melting point: 64 to 70 °C

Structure (SMILES): Cc1ccc(-c2nc(CCCCC3COC(C)(C(=O)O)OC3)c(C)o2)cc1C (stereo not shown) [Example 73, 2-Methyl-c-5-{4-[5-methyl-2-(3,4-dimethylphenyl)-oxazol-4-yl]butyl}-1,3-dioxane-r-2-carboxylic acid]
- Percent change of each parameter compared to control group (%): AI ([1]; dose 3 mg/kg): −85%
- Percent change of each parameter compared to control group (%): BG ([1]; dose 3 mg/kg): −53%
- Percent change of each parameter compared to control group (%): Ins ([1]; dose 3 mg/kg): −68%
- Percent change of each parameter compared to control group (%): TG ([1]; dose 3 mg/kg): −92%
- Percent change of each parameter compared to control group (%): HDL-C ([1]; dose 3 mg/kg): −8%
- Percent change of each parameter compared to control group (%): (V)LDL-C ([1]; dose 3 mg/kg): −90%

Structure (SMILES): COc1ccc(-c2nc(CCCCC3COC(C)(C(=O)O)OC3)c(C)o2)cc1 (stereo not shown) [Example 74, 2-Methyl-c-5-{4-[5-methyl-2-(4-methoxyphenyl)oxazol-4-yl]butyl}-1,3-dioxane-r-2-carboxylic acid]
- Percent change of each parameter compared to control group (%): AI ([1]; dose 3 mg/kg): −72%
- Percent change of each parameter compared to control group (%): BG ([1]; dose 3 mg/kg): −18%
- Percent change of each parameter compared to control group (%): Ins ([1]; dose 3 mg/kg): −33%
- Percent change of each parameter compared to control group (%): TG ([1]; dose 3 mg/kg): −46%
- Percent change of each parameter compared to control group (%): HDL-C ([1]; dose 3 mg/kg): 55%
- Percent change of each parameter compared to control group (%): (V)LDL-C ([1]; dose 3 mg/kg): −58%

Structure (SMILES): Cc1oc(-c2cccs2)nc1CCCCC1COC(C)(C(=O)O)OC1 (stereo not shown) [Example 75, 2-Methyl-c-5-{4-[5-methyl-2-(2-thienyl)oxazol-4-yl]butyl}-1,3-dioxane-r-2-carboxylic acid]
- Percent change of each parameter compared to control group (%): AI ([1]; dose 3 mg/kg): −61%
- Percent change of each parameter compared to control group (%): BG ([1]; dose 3 mg/kg): −23%
- Percent change of each parameter compared to control group (%): Ins ([1]; dose 3 mg/kg): −29%
- Percent change of each parameter compared to control group (%): TG ([1]; dose 3 mg/kg): −47%
- Percent change of each parameter compared to control group (%): HDL-C ([1]; dose 3 mg/kg): 37%
- Percent change of each parameter compared to control group (%): (V)LDL-C ([1]; dose 3 mg/kg): −50%

Structure (SMILES): Cc1ccc(-c2nc(Cc3cccc(CC4COC(C)(C(=O)O)OC4)c3)c(C)o2)cc1 (stereo not shown) [Example 81, 2-Methyl-t-5-[3-{[5-methyl-2-(p-tolyl)oxazol-4-yl]methyl}benzyl]-1,3-dioxane-r-2-carboxylic acid]
- Percent change of each parameter compared to control group (%): AI ([1]; dose 1 mg/kg): −83%
- Percent change of each parameter compared to control group (%): BG ([1]; dose 1 mg/kg): −8%
- Percent change of each parameter compared to control group (%): Ins ([1]; dose 1 mg/kg): −21%
- Percent change of each parameter compared to control group (%): TG ([1]; dose 1 mg/kg): −62%
- Percent change of each parameter compared to control group (%): HDL-C ([1]; dose 1 mg/kg): 32%
- Percent change of each parameter compared to control group (%): (V)LDL-C ([1]; dose 1 mg/kg): −76%

Structure (SMILES): Cc1c(C)c2c(c(C)c1O)CCC(C)(COc1ccc(CC3SC(=O)NC3=O)cc1)O2 (stereo not shown) [Troglitazone, 5-[4-(6-hydroxy-2,5,7,8-tetramethylchroman-2-ylmethoxy)benzyl]-2,4-thiazolidinedione, reference compound]
- Percent change of each parameter compared to control group (%): AI ([1]; dose 300 mg/kg): −7%
- Percent change of each parameter compared to control group (%): BG ([1]; dose 300 mg/kg): −9%
- Percent change of each parameter compared to control group (%): Ins ([1]; dose 300 mg/kg): −22%
- Percent change of each parameter compared to control group (%): TG ([1]; dose 300 mg/kg): −11%
- Percent change of each parameter compared to control group (%): HDL-C ([1]; dose 300 mg/kg): −8%
- Percent change of each parameter compared to control group (%): (V)LDL-C ([1]; dose 300 mg/kg): −26%
